# Where two headings read alike, the source gives them in different places. Positions of bridges follow the written chain, without caps; N, C: chain ends. Non-standard residues stand in square brackets, D forms with d. Residues, ends and D or L forms follow the SMILES beside them. *: point of attachment. X1 = NCc1ccc(CC(=O)*)cc1; PhAc = O=C(Cc1ccccc1)*; Aib = CC(C)(N)C(=O)O
# Experiments:
# [1] = target: T1, human IR-A (holoIR-A) (Homo sapiens, UniProt P06213); test: holoIR-A competitive radioligand binding assay (scintillation proximity assay); conditions: for affinity for hIR (in words): comparable to that of BHI; for Ki: primary peptide set, mean of 3 runs, read-out: IRA Binding Ki Mean
# T1 construct: expressed in transfected cells; host or cells: HEK293 (ATCC #CRL-1573), stably transfected; membrane preparation
# T1 sequence (P06213 28-1370 isoform P06213-2 limits assumed): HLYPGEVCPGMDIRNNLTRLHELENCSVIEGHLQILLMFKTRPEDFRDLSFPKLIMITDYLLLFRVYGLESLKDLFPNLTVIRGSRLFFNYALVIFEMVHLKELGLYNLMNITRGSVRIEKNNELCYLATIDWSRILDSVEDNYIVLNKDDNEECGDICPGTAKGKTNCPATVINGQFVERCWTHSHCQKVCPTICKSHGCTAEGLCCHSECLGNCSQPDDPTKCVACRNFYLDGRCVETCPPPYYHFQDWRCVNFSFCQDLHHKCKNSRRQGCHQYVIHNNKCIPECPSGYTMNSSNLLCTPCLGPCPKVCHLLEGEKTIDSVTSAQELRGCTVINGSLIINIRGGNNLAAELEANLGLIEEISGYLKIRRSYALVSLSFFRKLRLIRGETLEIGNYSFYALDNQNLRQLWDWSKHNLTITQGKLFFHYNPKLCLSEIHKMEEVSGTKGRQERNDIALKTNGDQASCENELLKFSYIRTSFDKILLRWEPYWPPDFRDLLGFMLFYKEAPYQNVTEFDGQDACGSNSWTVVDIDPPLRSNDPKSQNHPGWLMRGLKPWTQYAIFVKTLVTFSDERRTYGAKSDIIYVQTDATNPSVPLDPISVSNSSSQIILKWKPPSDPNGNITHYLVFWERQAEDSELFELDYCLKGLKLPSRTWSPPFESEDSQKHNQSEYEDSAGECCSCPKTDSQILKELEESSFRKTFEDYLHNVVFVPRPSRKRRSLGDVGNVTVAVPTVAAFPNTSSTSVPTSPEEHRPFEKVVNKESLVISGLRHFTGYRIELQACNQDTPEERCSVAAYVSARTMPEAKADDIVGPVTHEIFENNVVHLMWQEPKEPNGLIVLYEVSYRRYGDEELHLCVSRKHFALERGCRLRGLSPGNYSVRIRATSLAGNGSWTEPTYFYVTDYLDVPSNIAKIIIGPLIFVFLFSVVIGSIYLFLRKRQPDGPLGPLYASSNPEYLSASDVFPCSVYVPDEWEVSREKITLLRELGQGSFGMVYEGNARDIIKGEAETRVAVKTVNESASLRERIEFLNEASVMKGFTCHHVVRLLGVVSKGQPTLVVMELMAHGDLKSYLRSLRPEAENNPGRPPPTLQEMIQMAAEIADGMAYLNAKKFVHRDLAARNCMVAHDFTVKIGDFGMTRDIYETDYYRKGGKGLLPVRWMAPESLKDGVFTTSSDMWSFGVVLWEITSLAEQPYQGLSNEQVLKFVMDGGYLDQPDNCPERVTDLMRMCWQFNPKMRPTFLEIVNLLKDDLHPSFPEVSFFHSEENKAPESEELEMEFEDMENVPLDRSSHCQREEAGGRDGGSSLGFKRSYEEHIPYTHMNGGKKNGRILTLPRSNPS
# T1 sequence (P06213 763-1382 partner limits assumed): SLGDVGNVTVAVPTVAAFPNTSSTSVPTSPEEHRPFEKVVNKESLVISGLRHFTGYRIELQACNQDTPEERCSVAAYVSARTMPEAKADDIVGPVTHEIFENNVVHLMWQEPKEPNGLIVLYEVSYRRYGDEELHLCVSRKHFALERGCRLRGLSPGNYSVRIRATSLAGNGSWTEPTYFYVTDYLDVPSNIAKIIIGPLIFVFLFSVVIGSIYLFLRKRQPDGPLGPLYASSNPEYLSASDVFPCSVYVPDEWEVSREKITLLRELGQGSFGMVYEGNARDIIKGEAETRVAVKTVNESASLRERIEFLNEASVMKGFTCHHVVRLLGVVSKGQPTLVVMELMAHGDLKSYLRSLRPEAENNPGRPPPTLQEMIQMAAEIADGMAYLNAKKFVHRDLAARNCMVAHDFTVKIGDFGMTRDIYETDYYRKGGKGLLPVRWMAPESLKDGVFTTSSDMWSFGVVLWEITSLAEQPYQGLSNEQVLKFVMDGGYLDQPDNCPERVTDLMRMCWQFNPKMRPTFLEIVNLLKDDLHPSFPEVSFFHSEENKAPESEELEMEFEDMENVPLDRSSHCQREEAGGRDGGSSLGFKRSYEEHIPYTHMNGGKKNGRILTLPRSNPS
# Procedure, shortened: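 Membranes from HEK293 cells stably expressing C9-tagged human IR-A were used in a WGA-bead SPA competition assay in 50 mM Tris-HCl pH 7.5, 150 mM NaCl, 0.1% fatty-acid-free BSA. Ten-point 3-fold dilutions were incubated 10 h at room temperature before scintillation counting. Percent specific inhibition was calculated after nonspecific-binding correction, from three independent runs.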
# [2] = target: T2, human holoIR-A over-expressed in HEK293 cells (Homo sapiens, UniProt P06213); test: holoIR-A auto-phosphorylation assay (ELISA); format: cell-based; conditions: for weaker activity than BHI in an hIR autophosphorylation assay: relative to biosynthetic human insulin
# T2 construct: expressed in transfected cells; host or cells: HEK293, stably transfected
# T2 sequence (P06213 28-1370 isoform P06213-2 limits assumed): as the sequence (P06213 28-1370 isoform P06213-2 limits assumed) above
# T2 sequence (P06213 763-1382 partner limits assumed): as the sequence (P06213 763-1382 partner limits assumed) above
# Procedure: Phosphorylation was quantified using an ELISA technique. Ninety-six well, flat-bottom microplates (Greiner Bio-One) were pre-coated with 2 µg mL^−1 anti-C9 monoclonal antibody (Rho 1D4; University of British Columbia)[27] in 20 mM sodium carbonate, pH 9.6, at 4 °C for overnight prior to the assay. On the assay day, plates were washed 3× with 0.1% Tween in 50 mM Tris Buffer Saline, pH 7.5 (TBST), and then blocked for greater than 1 h at room temperature (RT) with 1% BSA (Sigma) in TBST.
# Stably transfected HEK293 cells over-expressing human holoIR-A containing a C-terminal C9 epitope tag ([…]), were plated at 6 × 10^4 cells per well serum-starved using 0.1% BSA in DMEM (Gibco) for overnight at standard tissue culture condition. […] After a 15-min incubation in lysis buffer at 4 °C, the lysate was transferred to anti-C9 antibody coated capture plate (Rho 1D4; University of British Columbia)[27]. […] After a 1 h incubation at room temperature, the secondary antibody was removed by washing 3× with TBST. Signal detection occurred with the addition of TMB, an HRP substrate (Pierce). After 5–10 min, the reaction was stopped by adding an equal volume of 2 M H2SO4, and the absorbance readings at 450 nm (A450) were recorded using a Envision plate reader (PerkinElmer). Samples were tested in three independent assay runs on three different days.
# Percent specific response (y-axis) was plotted versus the log concentration of compound (x-axis) using Prism Version 9.3.1 (GraphPad Software). Individual measurements are provided as Source Data.
# [3] = system: [holoIR-A]-expressing IM-9 human lymphoblast cells; test: holoIR-A accelerated dissociation assay of pre-bound 125I-insulin; format: binding; conditions: IM-9 cells, 1:40 dilution, 16 °C, 30 min; n = 3
# Procedure: Ice-cold 15-25 pM ^125I-insulin solution was added to IM-9 cells and incubated at 4 °C for 2.5 h for pre-bound experiments. […] Following receptor and ^125I-insulin pre-bound, the mix was quickly centrifugated and supernatant was removed. The bound ^125I-insulin and IM-9 cells were then resuspended with 16 °C pre-equilibrated HBB, pH 7.6. The ^125I-ligand/IM-9 cell mixture was aliquoted to cold compounds at 1:40 ratio, respectively. The reactions were incubated at 16 °C for 30 min to allow dissociation of prebound ^125I-insulin and then harvested by centrifugation and aspiration of the supernatant. The radioactivity of cell pellets was determined by gamma counter (Perkin Elmer). Samples were tested in three independent assay runs on three different days. Individual measurements are provided as Source Data.
# [4] = target: the molecule itself; test: cryo-EM structure; IM459-complexed hIR-A^ecto, eluted with IM459 from an insulin-affinity column and purified by SEC in TBSA; focussed refinement to ca 5.0 Å
# [5] = primary peptide set, mean of 3 runs, read-out: hIRA Phosph EC50 Mean
Molecule,affinity for hIR (in words) [1],Ki [1] [nM],"EC50 [2, 5] [nM]",hIRA Phosph EC50 Run 1 ([2]; primary peptide set) [nM],hIRA Phosph EC50 Run 2 ([2]; primary peptide set) [nM],hIRA Phosph EC50 Run 3 ([2]; primary peptide set) [nM],weaker activity than BHI in an hIR autophosphorylation assay [2] [fold],effect on dissociation of pre-bound I125-insulin tracer from native membrane-expressed hIR (in words) [3],"EC50 ([2]; Fig. 1b, HEK293 hIR-A cells, 1 h 37 °C, ELISA, errors given as SEM, n = 3 independent replicates, read-out: Auto-phosphorylation constant EC50) [nM]",binding result [4]
CC[C@H](C)[C@H](NC(=O)[C@H](CCC(N)=O)NC(=O)[C@H](C)NC(=O)[C@H](Cc1c[nH]c2ccccc12)NC(=O)[C@H](CCC(=O)O)NC(=O)[C@H](CCC(=O)O)NC(=O)[C@H](CCC(=O)O)NC(=O)[C@H](CC(C)C)NC(=O)[C@H](CO)NC(=O)Cc1ccccc1)C(=O)N[C@@H](CCC(=O)O)C(=O)N[C@H]1CSSC[C@@H](C(=O)N2CCC[C@H]2C(=O)N2CCC[C@H]2C(=O)N[C@@H](CO)C(=O)N[C@@H](CCC(=O)O)C(=O)N[C@@H](CO)C(=O)N[C@@H](Cc2ccc(OC)cc2)C(=O)N[C@@H](Cc2ccc(O)cc2)C(=O)N[C@@H](CCCCN)C(=O)N[C@@H](Cc2c[nH]c3ccccc23)C(=O)N[C@@H](Cc2ccccc2)C(=O)N[C@@H](CCC(=O)O)C(=O)N[C@@H](CCCNC(=N)N)C(=O)N[C@@H](CCC(N)=O)C(=O)N[C@@H](CC(C)C)C(N)=O)NC(=O)[C@H](CCCNC(=N)N)NC(=O)CNC(=O)[C@H](Cc2ccc(O)cc2)NC(=O)[C@H](C(C)C)NC(=O)[C@H](CCC(=O)O)NC1=O [IM172] (PhAc-SLEEEWAQIECEVYGRCPPSESY(Me)YKWFERQL-NH2; disulfide 11-17),sub-nM,0.255,7.06,6.352,8.068,6.757,~2.5,"trend similarly, but more weakly",–,–
CC[C@H](C)[C@H](NC(=O)[C@H](CCCCN)NC(=O)C(C)(C)NC(=O)[C@H](Cc1c[nH]c2ccccc12)NC(=O)[C@H](CCC(=O)O)NC(=O)[C@H](CCC(N)=O)NC(=O)[C@H](CCC(=O)O)NC(=O)[C@H](CC(C)C)NC(=O)[C@H](CO)NC(=O)Cc1ccc(CN)cc1)C(=O)N[C@@H](CCC(=O)O)C(=O)N[C@H]1CSSC[C@@H](C(=O)N2CCC[C@H]2C(=O)N2CCC[C@H]2C(=O)N[C@@H](CCCCN)C(=O)N[C@@H](CCCCN)C(=O)N[C@@H](C)C(=O)N[C@@H](Cc2ccc(OC)cc2)C(=O)N[C@@H](Cc2ccc(O)cc2)C(=O)N[C@@H](CCCCN)C(=O)N[C@@H](Cc2c[nH]c3ccccc23)C(=O)N[C@@H](Cc2ccccc2)C(=O)N[C@@H](CCC(=O)O)C(=O)N[C@@H](CCCNC(=N)N)C(=O)N[C@@H](CCC(N)=O)C(=O)N[C@@H](CC(C)C)C(=O)N[C@@H](CCCCN)C(N)=O)NC(=O)[C@H](CCCCN)NC(=O)CNC(=O)[C@H](Cc2ccc(O)cc2)NC(=O)[C@H](C(C)C)NC(=O)[C@H](CCC(=O)O)NC1=O [IM459] (X1-SLEQEW[Aib]KIECEVYGKCPPKKAY(Me)YKWFERQLK-NH2; disulfide 11-17),sub-nM,0.206,7.36,6.534,8.090,–,~2.5,decreases dissociation of the pre-bound insulin tracer,–,–
CC[C@H](C)[C@H](NC(=O)[C@H](CCCCN)NC(=O)C(C)(C)NC(=O)[C@H](Cc1c[nH]c2ccccc12)NC(=O)[C@H](CCC(=O)O)NC(=O)[C@H](CCC(N)=O)NC(=O)[C@H](CCC(=O)O)NC(=O)[C@H](CC(C)C)NC(=O)[C@H](CO)NC(=O)Cc1ccc(CN)cc1)C(=O)N[C@@H](CCC(=O)O)C(=O)N[C@H]1CSSC[C@@H](C(=O)N2CCC[C@H]2C(=O)N2CCC[C@H]2C(=O)N[C@@H](CCCCN)C(=O)N[C@@H](CCCCN)C(N)=O)NC(=O)[C@H](CCCCN)NC(=O)CNC(=O)[C@H](Cc2ccc(O)cc2)NC(=O)[C@H](C(C)C)NC(=O)[C@H](CCC(=O)O)NC1=O [IM459N21] (X1-SLEQEW[Aib]KIECEVYGKCPPKK-NH2; disulfide 11-17),–,10.6,> 1000,>1000,>1000,>1000,–,effect of IM459 is fully reproduced,> 1000,–
"hIR-A^ecto (insulin receptor isoform A ectodomain, residues 1-914) (domain or fragment, human, UniProt P06213-2 28-941, looked up, written as one chain of the [αβ]2 dimer; also called hIR ectodomain) HLYPGEVCPGMDIRNNLTRLHELENCSVIEGHLQILLMFKTRPEDFRDLSFPKLIMITDYLLLFRVYGLESLKDLFPNLTVIRGSRLFFNYALVIFEMVHLKELGLYNLMNITRGSVRIEKNNELCYLATIDWSRILDSVEDNYIVLNKDDNEECGDICPGTAKGKTNCPATVINGQFVERCWTHSHCQKVCPTICKSHGCTAEGLCCHSECLGNCSQPDDPTKCVACRNFYLDGRCVETCPPPYYHFQDWRCVNFSFCQDLHHKCKNSRRQGCHQYVIHNNKCIPECPSGYTMNSSNLLCTPCLGPCPKVCHLLEGEKTIDSVTSAQELRGCTVINGSLIINIRGGNNLAAELEANLGLIEEISGYLKIRRSYALVSLSFFRKLRLIRGETLEIGNYSFYALDNQNLRQLWDWSKHNLTITQGKLFFHYNPKLCLSEIHKMEEVSGTKGRQERNDIALKTNGDQASCENELLKFSYIRTSFDKILLRWEPYWPPDFRDLLGFMLFYKEAPYQNVTEFDGQDACGSNSWTVVDIDPPLRSNDPKSQNHPGWLMRGLKPWTQYAIFVKTLVTFSDERRTYGAKSDIIYVQTDATNPSVPLDPISVSNSSSQIILKWKPPSDPNGNITHYLVFWERQAEDSELFELDYCLKGLKLPSRTWSPPFESEDSQKHNQSEYEDSAGECCSCPKTDSQILKELEESSFRKTFEDYLHNVVFVPRPSRKRRSLGDVGNVTVAVPTVAAFPNTSSTSVPTSPEEHRPFEKVVNKESLVISGLRHFTGYRIELQACNQDTPEERCSVAAYVSARTMPEAKADDIVGPVTHEIFENNVVHLMWQEPKEPNGLIVLYEVSYRRYGDEELHLCVSRKHFALERGCRLRGLSPGNYSVRIRATSLAGNGSWTEPTYFYVTDYLDVPSN",–,–,–,–,–,–,–,–,–,binds
